“Also recorded” adds a separate entry of the source.
What was measured:
G. pallida J2s [1] = assay: G. pallida stylet thrusting assay; type: in vivo, Globodera pallida; details: for stimulation of stylet thrusting by the compound itself: J2s in compound alone; for effect on stylet behaviour: concentrations up to 10 mM (data not shown); for exposure time at which maximal stylet response was seen / maximally effective concentration for stylet thrusting / effect on S-shaped posture and reduced movement induced by fluoxetine: in vivo; for effect on stylet response to fluoxetine / effect on stylet response to exogenous serotonin: 24 h presoak
Method: Stylet thrusting assays were conducted in 20 mM HEPES buffered ddH2O, with pH adjusted to 7.4 with NaOH. J2s were pipetted into 3 ml of the test solutions in 30 mm petri dishes and the number of stylet thrusts per minute was counted at various time points as stated in figure legends. A single movement of the stylet knob forwards and then backwards to its original position was counted as one stylet thrust. Control assays were conducted in the presence of either 20 mM HEPES alone or 20 mM HEPES with drug vehicle, as indicated in figure legends. All assays were conducted at room temperature (20-22° C.). All drug solutions were made up on the day of use. Each solution contained 0.01% bovine serum albumin to prevent worms from sticking to the Petri dish. Reserpine was dissolved in 100% acetone and then 1 in 200 dilution was made using Hepes buffer (pH 7.4). […] Final concentration 50 μM reserpine.
For experiments in which J2s were pre-treated with reserpine phosphate or CPA, the worms were pre-soaked in the drug solutions for 24 hours.

C. elegans SER-7 = target: T1, C. elegans SER-7 (Caenorhabditis elegans, UniProt Q22895); assay: Cut head pharyngeal pumping assay
T1 sequence (Q22895 1-435): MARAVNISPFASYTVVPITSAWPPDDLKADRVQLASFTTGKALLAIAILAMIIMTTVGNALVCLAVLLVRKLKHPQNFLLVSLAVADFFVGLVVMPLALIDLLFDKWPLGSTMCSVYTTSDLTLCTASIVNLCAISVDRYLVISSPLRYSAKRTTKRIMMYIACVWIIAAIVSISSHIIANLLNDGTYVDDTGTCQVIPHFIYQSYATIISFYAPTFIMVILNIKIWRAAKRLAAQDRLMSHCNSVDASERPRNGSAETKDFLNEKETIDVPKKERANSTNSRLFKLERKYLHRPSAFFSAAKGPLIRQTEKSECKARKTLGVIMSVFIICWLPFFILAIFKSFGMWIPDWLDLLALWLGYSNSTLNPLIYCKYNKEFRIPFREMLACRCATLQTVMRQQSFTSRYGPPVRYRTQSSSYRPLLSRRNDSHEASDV
Method: Additionally, an intact pharynx containing a terminal bulb was dissected from the rest of the worm with a razor blade. The pharyngeal preparation was placed into 3 ml of Dent's saline (with 0.1% BSA and the drugs 5-HT or methiothepin) in a 25 mm Petri dish. Pharyngeal pumps were scored visually, as for the intact worms, for 1 min. For controls, the pharyngeal pumping was scored in Dent's saline (0.1% BSA) without drugs with appropriate vehicle controls.

G. pallida J2s [2] = assay: Root invasion assay on potato hairy root cultures; type: in vivo, Globodera pallida; details: J2s pre-incubated 24 h with 100 μM compound
Method: J2s of G. pallida were first sterilised with 0.1% chlorhexidine digluconate, 0.5 mg/ml CTAB for 25 mins and washed three times with sterile 0.01% Tween-20. The J2s were then incubated with gentle agitation for 24 hours in water, 100 μM reserpine phosphate, 100 μM methiothepin, 100 μM CPA or 2 mM fluoxetine prior to inoculation of potato hairy root cultures with 25 J2s per infection point and 3 infection points per root system. Hairy root cultures were generated using Agrobacterium rhizogenes R1000 and multiplied. Individual root systems of equivalent size growing on 9 cm plates containing Murashige and Skoog basal medium (Duchefa, Suffolk, UK) with 2% sucrose were selected for inoculation. Nine to 11 replicate plates were used for each treatment or control. Roots were stained with acid fuchsin 13 days after infection and the number of nematodes in each root system counted. Each complete invasion assay was carried out on two separate occasions.

G. pallida J2s [3] = assay: G. pallida dispersal (motility) assay on agar arena; type: in vivo, Globodera pallida; details: pre-incubation with 50 μM for 18 h
Method: Dispersal assays were performed on 5 cm plates filled with 10 ml of 2% agarose. […] For the reserpine assays worms were pre-soaked in the compound for 18 h. On the day of the assay 100 μl of potato root diffusate (PRD), ddH2O or drug solvents were spread onto the plates and the plates were sealed with the parafilm. The grid with six equal concentric circles was placed under the assay plates and the centre was marked with a dot. Around 50-100 G. pallida J2s or C. elegans L2 s were pipetted with 5 μl of ddH2O onto the centre (origin), the plate was re-sealed and the total number of worms was counted as soon as the liquid had absorbed. The number of J2s in each concentric circle was counted after 1, 2 and 24 hours.

C. elegans TPH-1 = assay: Pharyngeal pumping of C. elegans on food with CPA; type: in vivo
Method: (§1) Experiments were performed on one day old age synchronised worms by picking L4 stage a day before the assay. Due to the translucent nature of the worm, pharyngeal pumping may be scored in the intact animals by counting the movements of the grinder in the terminal bulb: one complete up and down motion is counted as a single pharyngeal pump. The number of pharyngeal pumps was counted on E. coli OP50 in N2, in the mutants tph-1 (mg280), ser-7 (tm1325), cat-1 (ok411) and in mutants with ectopic expression of C. elegans (ce) or G. pallida (ppn) tph-1, ser-7 or cat-1 in all of the neurons (Psnb-1 promoter).
(§2) To test the effects of CPA (4-chloro-DL-phenylalanine methyl ester hydrochloride) on pharyngeal pumping one day old adult C. elegans for N2, tph-1 (mg280) and tph-1-1 (mg280) with ectopic expression of C. elegans (ce) or G. pallida (Gpa) tph-1 were placed onto E. coli OP50 containing CPA on NGM plates and the number of pharyngeal pumps on food per min was scored after 2 and 18 hours.

G. pallida TPH-1 = assay: Pharyngeal pumping on food with CPA, tph-1 (mg280) expressing G. pallida tph-1; type: in vivo, Globodera pallida; details: tph-1 mutant expressing G. pallida tph-1
Method: as §1, §2

C. elegans = assay: Pharyngeal pumping of intact C. elegans off food with fluoxetine; type: in vivo, Caenorhabditis elegans
Method: as §1
To test the effects of fluoxetine one day old C. elegans for N2, cat-1 (ok411) and cat-1 (ok411) with ectopic expression of C. elegans (ce) or G. pallida (Gpa) cat-1 were placed onto unseeded NGM plates containing fluoxetine and the number of pharyngeal pumps per min was scored after 1 h and 18 h.

G. pallida = assay: Hatching of J2s from cysts/eggs; parameters: species or system Globodera pallida; details: in vivo
G. pallida SER-7 = G. pallida SER-7 (Globodera pallida, UniProt A0A183BS20, DEL280-286/G462A/H333Q/S454N/S6T/Y334H); assay: Cut head pharyngeal pumping assay, ser-7 (tm1325) expressing Gpa-ser-7; details: 100 nM; transgenics expressing G. pallida ser-7; 100 μM serotonin
Chain of G. pallida SER-7 (A0A183BS20 whole entry, stated change not applied): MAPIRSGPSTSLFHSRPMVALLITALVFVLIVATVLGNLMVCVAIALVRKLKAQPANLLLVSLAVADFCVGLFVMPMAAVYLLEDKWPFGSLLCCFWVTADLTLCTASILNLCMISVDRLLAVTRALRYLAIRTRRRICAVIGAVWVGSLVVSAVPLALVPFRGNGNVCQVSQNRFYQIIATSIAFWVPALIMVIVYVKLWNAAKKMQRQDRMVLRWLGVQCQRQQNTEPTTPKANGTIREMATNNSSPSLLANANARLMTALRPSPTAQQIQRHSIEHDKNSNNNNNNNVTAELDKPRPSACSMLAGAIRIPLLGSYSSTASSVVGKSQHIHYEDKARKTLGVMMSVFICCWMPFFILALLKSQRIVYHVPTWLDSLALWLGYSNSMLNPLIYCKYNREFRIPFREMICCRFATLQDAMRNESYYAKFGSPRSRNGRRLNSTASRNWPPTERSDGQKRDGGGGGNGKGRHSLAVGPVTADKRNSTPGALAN

C. elegans MOD-1 = assay: Thrashing paralysis assay (serotonin-induced paralysis), wild type; type: in vivo, Caenorhabditis elegans; details: wild type worms; 10 μM methiothepin; 33 mM serotonin
Method: (§3) For the methiothepin treatment group, 10 μM methiothepin was included in the wells of the microtitre plate. Wild type (N2), mod-1 (ok103), and the transgenic strains expressing gpa-mod-1 in mod-1 (ok103) were tested.

G. pallida MOD-1 = assay: Thrashing paralysis assay, mod-1 (ok103) expressing G. pallida mod-1; type: in vivo, Globodera pallida; details: worms expressing G. pallida mod-1; 10 μM methiothepin; 33 mM serotonin
Method: as §3

SMILES: CN(C)CCCN1c2ccccc2CCc2ccccc21 [imipramine]
- stimulation of stylet thrusting by the compound itself (G. pallida J2s [1]): stimulatory effects

SMILES: NCC(O)c1ccc(O)cc1 (stereo not drawn) [octopamine]
- effect on stylet behaviour (G. pallida J2s [1]): no effect

SMILES: NCCc1c[nH]c2ccc(O)cc12 [serotonin, 5-hydroxytryptamine]
- stimulation of stylet thrusting by the compound itself (G. pallida J2s [1]): time-dependent and concentration-dependent stimulation
- exposure time at which maximal stylet response was seen (G. pallida J2s [1]): 30 min
- maximally effective concentration for stylet thrusting (G. pallida J2s [1]): 10 mM
- concentration above which stylet concentration-response curve reached maximum plateau (G. pallida J2s [1]; response after 1 h): above 2 mM
- EC50 (C. elegans SER-7; EC50, activation of pharyngeal pumping, transgenic psnb-1::Ce-ser-7a, cut head, 95% confidence 457 nM to 1.34 μM): 782 nM
- EC50 (C. elegans SER-7; EC50, increase in pharyngeal pumping, wild type worms, cut head, 95% confidence 164 nM to 304 nM): 223 nM
- pharyngeal pumping response (C. elegans SER-7; ser-7 (tm1325) mutants, cut head, up to 100 μM): did not respond

SMILES: COC(=O)[C@H]1[C@H]2C[C@@H]3c4[nH]c5cc(OC)ccc5c4CCN3C[C@H]2C[C@@H](OC(=O)c2cc(OC)c(OC)c(OC)c2)[C@@H]1OC [reserpine, (3β,16β,17α,18β,20α)-11,17-Dimethoxy-18-[(3,4,5-trimethoxybenzoyl)oxy]yohimban-16-carboxylic acid methyl ester]
- number of nematodes present in the roots 13 days after inoculation (root invasion) (G. pallida J2s [2]): significantly decreased
- dispersal from origin of agar arena (motility) (G. pallida J2s [3]): significant reduction
- block of stimulatory effect of fluoxetine on stylet (G. pallida J2s [1]; 5 μM, 24 h soak, 2 mM fluoxetine): near-complete block
- recovery of fluoxetine-induced stylet response after washing (G. pallida J2s [1]; 50 μM for 24 h, then water wash up to 22 hours): No recovery
- block of stimulatory effect of fluoxetine on stylet (G. pallida J2s [1]; 50 μM, 24 h soak, 2 mM fluoxetine): near-complete block
- exposure time at which reduction of fluoxetine-stimulated stylet activity was evident (G. pallida J2s [1]; 50 μM, 2 mM fluoxetine): 4 h
- exposure time to full block of fluoxetine-stimulated stylet activity (G. pallida J2s [1]; 50 μM, 2 mM fluoxetine): 8 h
- exposure time to full inhibition of fluoxetine-stimulated stylet activity (G. pallida J2s [1]; 50 μM, 2 mM fluoxetine 30 mins (FIG. 14B)): 8 h
- effect on stylet response to fluoxetine (G. pallida J2s [1]; 2 mM fluoxetine 30 min): concentration-dependent inhibition
- effect on stylet response to fluoxetine (G. pallida J2s [1]; 2 mM fluoxetine 30 min, listed as Reserpine): potently blocked
- effect on stylet response to exogenous serotonin (G. pallida J2s [1]; 10 mM serotonin 30 min): no effect
- effect on stylet response to exogenous serotonin (G. pallida J2s [1]; 10 mM serotonin 30 min, listed as Reserpine): but not the response to serotonin
- lowest concentration giving significant reduction of fluoxetine-induced stylet activity (G. pallida J2s [1]; 24 h soak, 2 mM fluoxetine 30 min): 5 nM
- effect on S-shaped posture and reduced movement induced by fluoxetine (G. pallida J2s [1]): blocked
- independent stimulatory effect on stylet activity (G. pallida J2s [1]; reserpine alone): no independent stimulatory effect

SMILES: NCCc1ccc(O)cc1 [tyramine]
- effect on stylet behaviour (G. pallida J2s [1]): no effect

SMILES: NCCc1ccc(O)c(O)c1 [Dopamine]
- effect on stylet behaviour (G. pallida J2s [1]): no effect

SMILES: COC(=O)C(N)Cc1ccc(Cl)cc1.Cl (racemic) [CPA, 4-chloro-DL-phenylalanine methyl ester hydrochloride]
- number of nematodes present in the roots 13 days after inoculation (root invasion) (G. pallida J2s [2]): significantly reduced
- stylet thrusting in response to fluoxetine (G. pallida J2s [1]; 10 mM CPA overnight, 2 mM fluoxetine 30 min): reduced stylet thrusting
- stylet thrusting in response to serotonin (G. pallida J2s [1]; 10 mM CPA overnight, 10 mM serotonin 30 min): maintained their response
- inhibition of pharyngeal pumping (C. elegans TPH-1; tph-1 mutant): did not cause any further reduction
- ability to inhibit pharyngeal pumping (C. elegans TPH-1; tph-1 mutant expressing C. elegans tph-1): restored
- inhibition of pharyngeal pumping (C. elegans TPH-1; wild type C. elegans, CPA 10 mM): significantly inhibited
- ability to inhibit pharyngeal pumping (G. pallida TPH-1): restored

SMILES: CNCCC(Oc1ccc(C(F)(F)F)cc1)c1ccccc1 (stereo not drawn) [fluoxetine]
- stimulation of stylet thrusting by the compound itself (G. pallida J2s [1]): time-dependent and concentration-dependent stimulation; also recorded: stimulatory effects
- exposure time at which maximal stylet response was seen (G. pallida J2s [1]): 30 min
- maximally effective concentration for stylet thrusting (G. pallida J2s [1]): 2 mM
- shape of stylet concentration response curve (G. pallida J2s [1]; response after 1 h): bell-shaped
- stimulation of pharyngeal pumping in the absence of food (C. elegans; 1 mM and 2 mM, or longer exposure at 500 μM): did not cause a stimulation
- stimulation of pharyngeal pumping in the absence of food (C. elegans; C. elegans cat-1 mutant): not observed
- exposure time of maximal stimulation of pharyngeal pumping (C. elegans; absence of food): 1 h
- low dose stimulation of pharyngeal pumping (C. elegans; cat-1 mutant expressing ppn-cat-1 (G. pallida)): restored
- low dose stimulation of pharyngeal pumping (C. elegans; cat-1 mutant expressing wild-type C. elegans cat-1): restored
- stimulation of pharyngeal pumping in the absence of food (C. elegans; wild type, 5 to 500 μM): concentration-dependent

SMILES: CSc1ccc2c(c1)C(N1CCN(C)CC1)Cc1ccccc1S2 (stereo not drawn) [methiothepin]
- number of nematodes present in the roots 13 days after inoculation (root invasion) (G. pallida J2s [2]): blocked
- antagonism of serotonin-induced stylet thrusting (G. pallida J2s [1]; G. pallida J2s): potent antagonist
- effect on S-shaped posture and reduced movement induced by fluoxetine (G. pallida J2s [1]): blocked
- emergence of J2s from eggs (hatching) (G. pallida): potently inhibited
- inhibition of stimulatory effect of serotonin on pumping (C. elegans SER-7; 100 nM, transgenics expressing C. elegans ser-7, 100 μM serotonin): around 50%
- inhibition of stimulatory effect of serotonin on pumping (G. pallida SER-7): around 50%
- effect on mod-1 dependent serotonin-induced paralysis (C. elegans MOD-1): blocked
- effect on mod-1 dependent serotonin-induced paralysis (G. pallida MOD-1): blocked

— patent US20210360924A1, “PLANT OR SEED COATING” (University of Southampton, priority 2017, published 2021)
